Tests used:
[1] = tested on: TTR; test: In vitro on-target activity, primary mouse hepatocytes, transfection, RT-qPCR (TTR siRNAs); format: cell-based; conditions: for On-target TX: 10 nM, log2 transformed, relative to the parent
Method: Cell culture and transfections: Primary Mouse Hepatocytes (Thermo Fisher Scientific/Gibco) were transfected by adding 4.9 μL of Opti-MEM plus 0.1 μL of Lipofectamine RNAiMax per well (Invitrogen, cat #13778-150) to 5 μL of siRNA duplexes per well into a 384-well plate and incubated at room temperature for 15 minutes. 40 μL of Dulbecco's Modified Eagle Medium (Hep3b) or William's Medium (PMH) containing ˜5 ×10^3 cells were then added to the siRNA mixture. Cells were incubated for 24 hours at 37° C. and then processed for RNA purification. Experiments were performed at 10 nM and 0.1 nM doses of siRNA.
Total RNA isolation using DYNABEADS mRNA Isolation Kit: RNA was isolated using an automated protocol on a BioTek-EL406 platform using DYNABEADs (Invitrogen, cat #61012). Briefly, 70 μL of Lysis/Binding Buffer and 10 μL of lysis buffer containing 3 μL of magnetic beads were added to each well. Plates were incubated on an electromagnetic shaker for 10 minutes at room temperature and then magnetic beads were captured and the supernatant was removed. Bead-bound RNA was then washed 2 times with 150 μL Wash Buffer A and once with Wash Buffer B. Beads were then washed with 150 μL Elution Buffer, re-captured and supernatant removed.
cDNA synthesis using ABI High capacity cDNA reverse transcription kit (Applied Biosystems, cat #4368813): 12 μL of a master mix containing 1.2 μL 10× Buffer, 0.48 μL 25× dNTPs, 1.2 μL 10× Random primers, 0.6 μL Reverse Transcriptase, 0.6 μL RNase inhibitor and 7.92 μL of H2O per reaction was added to RNA isolated above. Plates were sealed, mixed, and incubated on an electromagnetic shaker for 10 minutes at room temperature, followed by 2 h 37° C.
Real time PCR: 2 μL of cDNA were added to a master mix containing 2 μL water, 0.5 μL of either an appropriate GAPDH TaqMan VIC Probe or the target probe and 5 μL Lightcycler 480 probe master mix (Roche, cat #04887301001) per well in a 384 well plate (Roche, cat #04887301001). Real time PCR was done in a LightCycler480 Real Time PCR system (Roche). Each duplex was tested in quadruplicate and data were normalized to cells transfected with a non-targeting control siRNA. To calculate relative fold change, real time data were analyzed using the ΔΔCt method and normalized to assays performed with cells transfected with a non-targeting control siRNA.
RT qPCR for Ttr mRNA quantification:_Primary mouse hepatocytes (PMH) were cultured in Williams E Medium with 10% fetal bovine serum. Transfection of cells using RNAiMAX reagent was done as per the manufacturer's recommended protocol. Thus, cells were thawed immediately prior to transfection and then plated onto 384-well plates with a seed density of ˜5000 cells/well. Pre-incubated lipid/siRNA complex (0.1 μL RNAiMax, siRNA, in 5 μL Opti-MEM for 15 min) was added to a 384-well collagen-coated plate (BioCoat; Corning) and cells were incubated for 20 h at 37° C. in an atmosphere of 5% CO2. Eight 6-fold serial dilutions ranging from 10 to 0.036 nM were used to perform dose response experiments. Media was removed before washing and lysing the cells. Using Dynabeads mRNA isolation kit according to manufacturer's protocol, RNA was extracted and subsequently reverse-transcribed with the ABI high capacity cDNA reverse transcription kit. Quantification was done by real-time PCR, whereby the cDNA (2 μL) was added to a master mix that contained 0.5 μL mouse Gapdh TaqMan Probe, 0.5 μL Ttr TaqMan probes, and 5 μL Lightcycler 480 probe master mix per well in a 384-well 50 plate. Real-time PCR was accomplished in an ABI 7900HT RT-PCR system using the ΔΔCt (RQ) assay. Each duplex and concentration was tested in four biological replicates. To calculate relative fold change, real time data were analyzed using the ΔΔCt method and normalized to assays performed with cells transfected with 10 nM nonspecific siRNA. IC50 values were calculated using a 4-parameter fit model using XLFit.

[2] = Temperature-dependent UV spectroscopy, Tm of modified siRNA duplexes; format: physicochemical; conditions: 1 μM duplex, 0.25x PBS
Method: Temperature-dependent UV Spectroscopy: The melting studies were performed at a duplex concentration of 1 μM (consisting of the modified antisense […]) in 1 cm path length quartz cells on a Cary 300 spectrophotometer equipped with a thermoprogrammer. Each cuvette contained 800 μL of sample solution covered by 200 μL of light mineral oil. Melting curves were monitored at 260 nm with a heating rate of 1° C./min from 15-90° C. Melting temperatures (Tm) were calculated from the first derivatives of the smoothed heating curves and the reported values are the result of at least two independent measurements.

[3] = tested on: TTR; test: In vitro on-target activity, primary mouse hepatocytes, free uptake (TTR siRNAs); format: cell-based; conditions: 1 nM, log2 transformed, relative to the parent
[4] = tested on: TTR; test: Mouse pharmacodynamic study, circulating TTR protein; format: in vivo; design: key: fraction of vehicle-control group mean serum TTR protein; conditions: mice, single dose 1 mg/kg, circulation, Day 7
Method: In mouse pharmacodynamic studies, female C57BL/6 mice (Charles River Laboratories) were administered a single dose of a vehicle control (1×PBS or 0.9% sodium chloride) or siRNA subcutaneously in the upper back. Bleeds were collected by retro-orbital bleeding. Serum were separated by centrifuging at 13000 rpm at room temperature for 10 mins. Mouse livers were collected and immediately snap frozen in liquid nitrogen, and stored at −80° C. for mRNA and siRNA analysis.
Mouse TTR Serum Protein Methods:_TTR serum protein was quantified using a commercially available enzyme-linked immunosorbent assay, 41-ALBMS-E01 (ALPCO, Salem, NH), according to manufacturer's instructions. Briefly, serum samples were diluted 4000 fold in 1× ALPCO Kit Dilution Buffer. An 8-point mouse TTR standard curve was generated using 2.5× serial dilutions, ranging from 0 to 1000 ng/mL. Standards and samples (100 uL) were added to the plate and allowed to incubate for 30 minutes at room temperature. […] After a wash in ALPCO Kit 1× Wash Buffer, plates were incubated for 10 minutes at room temperature in the dark with 3,3′,5,5′-tetramethybenzidine (TMB) and hydrogen peroxide in citric acid buffer at pH 3.3. Reactions were quenched with 100 μL of […] sulfuric acid per well. Absorbance at […] was read on a SpectraMax plate reader, and data were fit to a 4-parameter curve (y=(A−D)/(1+(x/C)^B)+D) as calculated in Softmax Pro Software to determine serum TTR protein levels expressed in ug/mL. Protein levels at each time point were normalized to the respective group average of vehicle control serum protein values.

[5] = TTR-3, antisense strand modified at position 5, primary mouse hepatocytes
[6] = TTR-3, antisense strand modified at position 7, primary mouse hepatocytes
[7] = TTR-4, modification at antisense position 7, primary mouse hepatocytes
[8] = antisense Position 5, Seq 3 (TTR)
[9] = antisense Position 7, Seq 3 (TTR)
[10] = antisense Position 7, Seq 4 (TTR)

Row | Substance | IC50 [1, 5] [nM] | IC50 [1, 6] [nM] | IC50 [1, 7] [nM] | On-target TX [1, 8] | On-target TX [1, 9] | On-target TX [1, 10] | Thermal melting temperature (Tm) [2, 8] [°C] | Thermal melting temperature (Tm) [2, 9] [°C] | Thermal melting temperature (Tm) [2, 10] [°C] | On-target FU [3, 8] | On-target FU [3, 9] | On-target FU [3, 10] | On-target, level of protein remaining with respect to PBS control [4, 9] | On-target, level of protein remaining with respect to PBS control [4, 10]
1 | 5′-(S)-Me-UNA [Mod 5 (S)] | 0.0011 | 0.015 | 0.0421 | −0.03 | −0.04 | −0.97 | 84.2 | 80.3 | 82.0 | −0.87 | −1.20 | 0.22 | 0.17 | 0.16
2 | 2′-(R)-Me-UNA [Mod 7 (R)] | – | 0.0186 | 0.0277 | 0.50 | 0.15 | −0.99 | 84.0 | 80.0 | 82.1 | 0.02 | −0.35 | −0.24 | 0.18 | 0.14
3 | 3′-(S)-Me-UNA [Mod 6 (S)] | 0.00316 | 0.0322 | 0.0239 | 0.18 | 0.06 | −0.31 | 84.0 | 81.1 | 82.0 | −0.38 | −0.53 | −0.09 | 0.20 | 0.23
4 | 5′-(R)-Me-UNA [Mod 5 (R)] | 0.00147 | 0.0138 | 0.0898 | 0.45 | 0.50 | −1.26 | 84.2 | 80.3 | 82.0 | −0.16 | −0.03 | −0.33 | 0.17 | 0.16
5 | 3′-(R)-Me-UNA [Mod 6 (R)] | 0.00157 | 0.0348 | 0.0358 | −0.28 | 0.67 | −0.98 | 84.1 | 81.2 | 82.0 | −0.78 | −0.32 | 0.36 | 0.20 | 0.29
6 | 2′-(S)-Me-UNA [Mod 7 (S)] | 0.00254 | 0.0235 | 0.0486 | 0.43 | 0.72 | −0.79 | 84.3 | 80.0 | 83.0 | −0.10 | −0.02 | −0.14 | 0.15 | 0.20

— patent publication US20250207131A1, “MODIFIED RNA AGENTS WITH REDUCED OFF-TARGET EFFECT” (Alnylam Pharmaceuticals, Inc., priority 2018, published 2025)
